Reference: patent US20050281850A1, “Cosmetic/dermatological inverse emulsions containing calcitriol and clobetasol 17-propionate” (GALDERMA S.A., priority 2004, published 2005)

Columns and labels:
Assay type in all cases: physicochemical
[1] = Stability of calcitriol in ethanol (HPLC assay against reference substance); settings: 30 ppm in absolute ethanol, 0.02% BHT
Description: a) Stability of Calcitriol in Ethanol: 30 ppm solution of calcitriol in qs 100% of absolute ethanol in the presence of 0.02% BHT. HPLC assay technique against reference substance. At the initial time (T0), it is considered that the composition comprises 100% calcitriol. Calcitriol concentration measured as % relative to T0: […]

[2] = Stability of calcitriol in Miglyol 812 (HPLC assay against reference substance); settings: for Calcitriol concentration measured as % relative to T0: 30 ppm in Miglyol 812, 0.4% BHT
Description: b) Stability of Calcitriol in Miglyol 812 (Caprylic/-15 Capric Triglycerides) 30 ppm solution of calcitriol in qs 100% Miglyol 812 in the presence of 0.4% BHT. HPLC assay technique against reference substance. At the initial time (T0), it is considered that the composition comprises 100% calcitriol. Calcitriol concentration measured as % relative to T0: […]

[3] = Stability of calcitriol in Cetiol SN (HPLC assay against reference substance); settings: for Calcitriol concentration measured as % relative to T0: 30 ppm in Cetiol SN, 0.4% BHT
Description: c) Stability of Calcitriol in Cetiol SN (Cetearyl Isononanoate): 30 ppm solution of calcitriol in qs 100% Cetiol SN (cetearyl isononanoate) in the presence of 0.4% BHT. HPLC assay technique against reference substance. At the initial time (T0), it is considered that the composition comprises 100% calcitriol. Calcitriol concentration measured as % relative to T0: […]

In the case of `C=C1/C(=C\C=C2/CCC[C@]3(C)[C@@H]([C@H](C)CCCC(C)(C)O)CC[C@@H]23)C[C@@H](O)C[C@@H]1O` [calcitriol], the “Calcitriol concentration measured as % relative to T0” value ([1]; +4° C., T1 week) is reported as 97.7%, the “Calcitriol concentration measured as % relative to T0” value ([1]; +4° C., T2 weeks) is reported as 98.6% and the “Calcitriol concentration measured as % relative to T0” value ([1]; +4° C., T3 weeks) is reported as 98.1%. For the same molecule, the “Calcitriol concentration measured as % relative to T0” value ([1]; +4° C., T4 weeks) was 97.7%, the “Calcitriol concentration measured as % relative to T0” value ([1]; +30° C., T2 weeks) was 93.4% and the “Calcitriol concentration measured as % relative to T0” value ([1]; +30° C., T4 weeks) was 93.0%. The “Calcitriol concentration measured as % relative to T0” value ([1]; −18° C., T1 week) was 100.9%, the “Calcitriol concentration measured as % relative to T0” value ([1]; −18° C., T2 weeks) was 100.5% and the “Calcitriol concentration measured as % relative to T0” value ([1]; −18° C., T3 weeks) was 99.5%. The “Calcitriol concentration measured as % relative to T0” value ([1]; −18° C., T4 weeks) was 99.5%, the “Calcitriol concentration measured as % relative to T0” value ([2]; +4° C., T2 weeks) was 98.3% and the “Calcitriol concentration measured as % relative to T0” value ([2]; +4° C., T4 weeks) was 105.2%. For the same molecule, the “Calcitriol concentration measured as % relative to T0” value ([2]; +40° C., T2 weeks) was 91%, the “Calcitriol concentration measured as % relative to T0” value ([2]; +40° C., T4 weeks) was 93.8% and the “Calcitriol concentration measured as % relative to T0” value ([2]; RT, T2 weeks) was 95.1%. For the same molecule, the “Calcitriol concentration measured as % relative to T0” value ([2]; RT, T4 weeks) was 98.0%, the “Stability of calcitriol in Miglyol 812 (in words)” value ([2]; in Miglyol 812) was “good stability” and the “Calcitriol concentration measured as % relative to T0” value ([3]; +4° C., T2 weeks) was 98.6%. The “Calcitriol concentration measured as % relative to T0” value ([3]; +4° C., T4 weeks) was 98.1%, the “Calcitriol concentration measured as % relative to T0” value ([3]; +40° C., T2 weeks) was 99.0% and the “Calcitriol concentration measured as % relative to T0” value ([3]; +40° C., T4 weeks) was 98.9%. For the same molecule, the “Calcitriol concentration measured as % relative to T0” value ([3]; RT, T2 weeks) was 98.7%, the “Calcitriol concentration measured as % relative to T0” value ([3]; RT, T4 weeks) was 98.4% and the “Stability of calcitriol in Cetiol SN (in words)” value ([3]; in Cetiol SN) was “good stability”.
